Series [1] relates to A549 (lung carcinoma) xenografts. In words: A549 xenograft study with paclitaxel triple combination (Example 2). Format: in vivo, mice. The following applies: for Drug deaths: Paclitaxel 5, Avastin 5, DMXAA 21 mg/kg by injection; for Regression Duration: days tumour volume less than original treatment volume; for Tumour Growth Delay: treated versus control tumours to quadruple in volume (control 25 days); for Median VQT: tumour volume quadrupling time; for Response CR (Complete Response): undetectable tumour over two weeks; for Response PD (Progressive Disease): ≧50% increase in tumour size; for Response PR (Partial Response): ≧50% reduction in tumour size sustained over two weeks. The source says: The experimental set-up of this example with respect to the xenografts, mice and cell line is as described in Example 1 above.

For series [2], the system named is HT29 (colorectal) xenografts. The settings on record: for Regression Duration: days tumour volume less than original treatment volume; for Tumour Growth Delay: treated versus control tumours to quadruple in volume (control 17 days); for Median VQT: tumour volume quadrupling time; for Response CR (Complete Response): undetectable tumour over two weeks; for Response PR (Partial Response): ≧50% reduction in tumour size sustained over two weeks.
Description: (§1) Xenografts for human lung and colorectal cancers are set-up in groups of nude, athymic mice. The cell lines selected are HT29 (ATCC number HTB-38), a colorectal adenocarcinoma, and A549 (ATCC number CCL-185), a lung carcinoma.
(§2) For this study, DMXAA is given twice in each of Weeks 1 and 4 of the study.
(§3) Xenografts are measured two or three times per week and their absolute volume recorded; xenograft tumour volume relative to that recorded on Day 0 (V0) is then calculated. The time taken to reach a relative tumour volume of 3× V0 is used as a surrogate marker for survival.

In series [3] the test system is A549 (lung carcinoma) xenografts. The settings on record: for Regression Duration: Example 1, days tumour volume less than original treatment volume; for Tumour Growth Delay: Example 1, treated versus control tumours to quadruple in volume (control 25 days); for Median VQT: Example 1, tumour volume quadrupling time; for Response CR (Complete Response): Example 1, undetectable tumour over two weeks; for Response PR (Partial Response): Example 1, ≧50% reduction in tumour size sustained over two weeks.
Description: as §1, §2, §3

For another series, the system named is human tumours. The settings on record: phase I, monotherapy, cited from earlier work.
The conditions of series [4]: cited from earlier work.
For series [5] the following is noted: diclofenac 100 mg/kg i.p., cited from earlier work.

Where two headings read alike, the source gives them in different places. Some results are limits rather than exact numbers.

Turning to `Cc1ccc2c(=O)c3cccc(CC(=O)O)c3oc2c1C` [DMXAA, 5,6-dimethylxanthenone-4-acetic acid], in series [1], the “Response SD (Stable Disease)” value was 0, the “TTP (median time to disease progression)” value worked out at 7 days, the Drug deaths is recorded as 4/11 and the “Regression Duration” value came out at 0 days. Moreover, in series [1], the “Tumour Growth Delay” value is more than 21 days, the “Median VQT” value is more than 46 days, the “Response CR (Complete Response)” value was 0 and the “Response PD (Progressive Disease)” value came to 7. Besides, the “Response PR (Partial Response)” value in series [1] is on record as 0. Besides, in series [2], the “Response SD (Stable Disease)” value was found to be 0, the “TTP (median time to disease progression)” value is 16 days, the “Regression Duration” value was 10 days and the “Tumour Growth Delay” value worked out at 29 days. For the same molecule, in series [2], the “Median VQT” value turned out to be 46 days, the “Response CR (Complete Response)” value is reported as 0 and the “Response PR (Partial Response)” value is listed as 1. In addition, the “Response PD (Progressive Disease)” value in series [2] (≧50% increase in tumour size) was 5. For the same molecule, in series [3] (Example 1), the “Response SD (Stable Disease)” value came out at 0 and the “TTP (median time to disease progression)” value was 14 days. In addition, in series [3], the “Regression Duration” value worked out at 0 days, the “Tumour Growth Delay” value was found to be 32 days, the “Median VQT” value worked out at 57 days and the “Response CR (Complete Response)” value was determined as 0. Further, in series [3], the “Response PR (Partial Response)” value came to 0. The “Response PD (Progressive Disease)” value in series [3] (Example 1, ≧50% increase in tumour size) is listed as 11. In addition, the “tumour blood flow (dynamic MRI)” value in the series with human tumours (well-tolerated doses) was “significant reduction in tumour blood flow”. For the same molecule, the tumour responses result in the series with human tumours was “very few tumour responses”.

In the case of `CC(=O)O[C@H]1C(=O)[C@@]2(C)[C@H]([C@H](OC(=O)c3ccccc3)[C@]3(O)C[C@H](OC(=O)[C@H](O)[C@@H](NC(=O)c4ccccc4)c4ccccc4)C(C)=C1C3(C)C)[C@]1(OC(C)=O)CO[C@@H]1C[C@@H]2O` [Paclitaxel, paclitaxel], in series [1], the “Response SD (Stable Disease)” value is 0, the “TTP (median time to disease progression)” value was 7 days, the Drug deaths is reported as 0/11 and the “Regression Duration” value was 0 days. Further, in series [1], the “Tumour Growth Delay” value is 3 days, the “Median VQT” value amounted to 28 days, the “Response CR (Complete Response)” value came to 0 and the “Response PD (Progressive Disease)” value turned out to be 11. In series [1], the “Response PR (Partial Response)” value came to 0.

For `O=C1CCC(N2C(=O)c3ccccc3C2=O)C(=O)N1` (centres unmarked) [Thalidomide, thalidomide], the “increase of the AUC of DMXAA” value in series [4] (in plasma, liver and spleen) is 1.8 times; in series [4] (in tumour), “three”.

For `O=C(O)Cc1ccccc1Nc1c(Cl)cccc1Cl` [diclofenac], the “increase in the plasma DMXAA AUC” value was 31% in series [5] (female mice) and 24% in series [5] (male mice). For the same molecule, in series [5] (male and female mice, P<0.05), the “increase in T1/2 of DMXAA” value is reported as “threefold”.

Turning to “Avastin ™: humanised monoclonal antibody that binds to vascular endothelial growth factor (VEGF)”, in series [1], the “TTP (median time to disease progression)” value was 7 days, the Drug deaths is 0/11, the “Regression Duration” value came out at 0 days and the “Tumour Growth Delay” value is more than 17 days. In series [1], the “Median VQT” value was more than 42 days, the “Response CR (Complete Response)” value amounted to 0 and the “Response PR (Partial Response)” value is recorded as 0. Besides, in series [2], the “Regression Duration” value worked out at 0 days, the “Tumour Growth Delay” value worked out at 17 days, the “Median VQT” value is 34 days and the “Response CR (Complete Response)” value is listed as 0. In addition, the “Response PR (Partial Response)” value in series [2] is recorded as 0. Moreover, the “TTP (median time to disease progression)” value in series [3] (Example 1) came out at 8 days. In addition, in series [3], the “Regression Duration” value worked out at 0 days, the “Tumour Growth Delay” value was found to be 42 days, the “Median VQT” value worked out at 67 days and the “Response CR (Complete Response)” value was determined as 0. Further, in series [3], the “Response PR (Partial Response)” value was found to be 1.

(Values after US20100297112A1, “COMBINATIONS COMPRISING DMXAA FOR THE TREATMENT OF CANCER” (Antisoma Research Limited, priority 2005, published 2010).)
